Measurements taken from patent publication US20070238785A1, “Use of an anti-atherothrombotic compound in obtaining medicaments intended for the treatment of vascular disorders” (priority 2006, published 2007).
Structures can show the parent of a compound that is named as a salt.

Legend:
[1] = test system: sodium-loaded SHR-SP rat; test: survival study in sodium-loaded SHR-SP rat; type: in vivo; settings: 30 mg/kg/day in food, 1% NaCl in drinking water, from 10 weeks of age; Carrier group 57 days
Protocol: (§1) 10-week old male SHR-SP rats (Charles River) being given 1% NaCl in their drinking water were separated into two groups in random manner and were treated, or not, with the sodium salt of the (R) isomer of the compound of formula (I) (30 mg/kg/day) incorporated in their food.
In a first study, the survival of each group was determined by calculating the percentage of animals alive each day after the start of treatment.
(§2) The results are reported as the mean±S.E.M. Differences are considered significant when P<0.05 after a Student's t test. The survival of the animals is represented on a Kaplan-Meier graph and the results are considered significant when P<0.05 after a log-rank test.

[2] = test system: radial artery; test: peripheral vasomotor response, provoked hyperaemia test in atheromatous patients; type: in vivo; settings: versus placebo, patients treated with aspirin; whatever the dose, single or repeated administration (15 days), about 2 hours after administration
Protocol: This superiority is observed whatever the dose, after single administration or repeated administration (15 days), the vasodilatory effect being evaluated about 2 hours after administration of the medicament.

[3] = test system: atherosclerotic lesion; test: experimental models of anti-proliferative, anti-atheromatous and anti-inflammatory effects; type: in vivo
[4] = test system: thrombus; test: ex vivo anti-thrombotic activity, perfusion chamber model, in patients at high risk of ischaemic CVA
Text: In this study, the sodium salt of the (R) isomer of the compound of formula (I) also has an effect on the measured markers of inflammation (sVCAM, sPAI-1, sP-selectin, thrombomodulin).

[5] = test system: carotid thrombosis; test: models of carotid thrombosis in vivo and ex vivo (occlusion time); settings: carotid thrombosis: vascular electrolysis (dog), mechanical lesion (guinea pig), electric stimulation (rat), ex vivo carotid-carotid arterial bypass by glass capillary
[6] = test system: sodium-loaded SHR-SP rat; test: 5-week study in sodium-loaded SHR-SP rat (cardiac hypertrophy, urinary 8-OH-dG, plasma thiostatin); type: in vivo; settings: 30 mg/kg/day in food, 5 weeks, compared to Carrier group
Protocol: as §1
In a second study, the rats were monitored over 5 weeks, between 10 and 15 weeks of age, and were then sacrificed in order to quantify a urinary marker of oxidative stress (8-OH-dG) and a plasma marker reflecting acute inflammation (thiostatin, which in the rat is the equivalent of CRP) and in order to determine cardiac hypertrophy.
During the last 24 hours of monitoring, the animals were placed in individual metabolic cages and the urines were collected in sterile tubes (200 μl of 2 mM EDTA). Diuresis was measured and the production of 8-hydroxy-2′-deoxyguanosine (8-OH-dG) was quantified by ELISA assay (Oxis, Bioxytech).
The rats were anaesthetised by intraperitoneal injection of pentobarbital sodium (50 mg/kg, Ceva laboratories). Blood was sampled from the carotid artery (sampling into heparin 5000 IU/ml) in order to measure thiostatin production by ELISA assay (Life Diagnostics). The heart was excised, dried and weighed, and cardiac hypertrophy was determined by dividing the weight of the dry heart by the body weight for each animal in order to standardise the measurement.
as §2

[7] = after 10 days of administration, compared with aspirin

Which “time after which half the rats were dead (survival)” value [1] does the source give for `Cc1ccc2c(c1CCC(=O)O)CCC(NS(=O)(=O)c1ccc(Cl)cc1)C2` [sodium salt of the (R) isomer of the compound of formula (I), 3-{6-[(4-chlorophenylsulphonyl)amino]-2-methyl-5,6,7,8-tetrahydro-naphth-1-yl}propionic acid] here?
The value was 99 days.

And the endothelium-dependent vasodilation [2]?
Its endothelium-dependent vasodilation is “superiority”.

What about the “expression of adhesion molecules and markers such as endothelin, ICAM and VCAM” value [3] of the same compound?
The value was “inhibits”.

And the “infiltration of macrophages into the vascular wall” value [3]?
Its value is “inhibits”.

What about the intima/media ratio [3] of the same compound?
The intima/media ratio was “significantly reduces”.

What about the serum cholesterol [3] of the same compound?
The serum cholesterol was “without reducing”.

What about the “surface area of the atherosclerotic lesion” value [3] of the same compound?
Its value is “significantly reduces”.

What about the “thickness of the vascular wall” value [3] of the same compound?
Its value is “significantly reduces”.

What about the “% adhesion” value [4, 7] of the same compound?
The value was “superiority”.

What about the “dense surface area of the thrombus” value [4, 7] of the same compound?
The value was “superiority”.

And the “total surface area of the thrombus” value [4, 7]?
The value was “superiority”.

And the “measured markers of inflammation (sVCAM, sPAI-1, sP-selectin, thrombomodulin)” value ([4]; patients at high risk of ischaemic CVA)?
The value was “has an effect”.

What about the occlusion time [5] of the same compound?
Its occlusion time is “lengthens the occlusion time in dose-dependent manner”.

What about the “cardiac hypertrophy (dry heart weight / body weight)” value [6] of the same compound?
The value was “less marked”.

What about the “plasma thiostatin (acute inflammation)” value [6] of the same compound?
Its value is “lower”.

And the “total amount of 8-OH-dG in urines over 24 hours (oxidative stress)” value [6]?
The value was “reduced”.
